Test results: the NIST ThermoML archive (doi:10.1016/j.jct.2008.04.006)

Experiments:
[1] = xn = mol fraction of the nth substance listed; conditions: 100 kPa, Liquid
[2] = refractive index (Na D-line) (dimensionless); xn = mol fraction of the nth substance listed; conditions: 298.15 K, 100 kPa, Liquid, Standard Abbe refractometry
[3] = refractive index (Na D-line) (dimensionless); conditions: 298.15 K; 101.33 kPa; Liquid; Standard Abbe refractometry
[4] = 100 kPa, Liquid

COS(=O)(=O)[O-].Cn1cc[n+](C)c1 [1,3-dimethylimidazolium methylsulfate] + CCO
[1]
Conditions	mass density, 298.15 K [kg/m3]	mass density, 313.15 K [kg/m3]	mass density, 328.15 K [kg/m3]	viscosity, 298.15 K [mPa·s]	viscosity, 313.15 K [mPa·s]	viscosity, 328.15 K [mPa·s]
x2 = 0	1329.12	1318.56	1308.13	77.7	41.68	25.21
x2 = 0.0669	1316.47	1305.89	1295.53	62.1	34.42	21.43
x2 = 0.1228	1305.19	1294.59	1284.2	51.6	29.38	18.72
x2 = 0.2212	1282.46	1271.77	1261.38	36.97	22.8	15.07
x2 = 0.2944	1263.18	1252.46	1241.97	29.56	17.97	12.28
x2 = 0.3984	1231.22	1220.4	1209.57	20.26	12.87	9.141
x2 = 0.5	1192.8	1181.88	1171.12	12.83	8.823	6.461
x2 = 0.5926	1150.85	1139.74	1128.74	8.784	6.258	4.727
x2 = 0.6921	1094.3	1082.98	1071.75	5.706	4.309	3.246
x2 = 0.797	1018.1	1006.41	994.72	3.513	2.649	2.077
x2 = 0.8957	923.16	910.98	898.7	2.096	1.603	1.265
x2 = 0.945	864.26	851.76	839.06	1.602	1.225	0.961

[2]
Conditions	refractive index
x2 = 0	1.48296
x2 = 0.0669	1.48028
x2 = 0.1228	1.47773
x2 = 0.2212	1.47336
x2 = 0.2944	1.46936
x2 = 0.3984	1.46252
x2 = 0.5	1.45421
x2 = 0.5926	1.44554
x2 = 0.6921	1.43248
x2 = 0.797	1.41494
x2 = 0.8957	1.39329
x2 = 0.945	1.37874

COS(=O)(=O)[O-].Cn1cc[n+](C)c1 [1,3-dimethylimidazolium methylsulfate]
Conditions	refractive index
[3]	1.48296

[4]
Conditions	mass density [kg/m3]	viscosity [mPa·s]
298.15 K	1329.12	77.7
313.15 K	1318.56	41.68
328.15 K	1308.13	25.21

CCO [ethanol]
Conditions	refractive index
[3]	1.36023

[4]
Conditions	mass density [kg/m3]	viscosity [mPa·s]
298.15 K	785.46	1.082
313.15 K	772	0.827
328.15 K	758.55	0.641
